US12162858B2, “Quinoline derivatives as inhibitors of AXL/MER RTK and CSF1R” (QURIENT CO., LTD., priority 2018, dated 2024)

Legend:
Assay type in all cases: cell-based
Mer (Ba/F3 cells) = biological target: T1, Mer (Ba/F3 cells) (Homo sapiens, UniProt Q12866); experiment: BaF3 viability assay, Mer-dependent cells; conditions: read-out: Cellular Mer activity by Ba/F3 assay (IC50)
T1 sequence (Q12866 1-999): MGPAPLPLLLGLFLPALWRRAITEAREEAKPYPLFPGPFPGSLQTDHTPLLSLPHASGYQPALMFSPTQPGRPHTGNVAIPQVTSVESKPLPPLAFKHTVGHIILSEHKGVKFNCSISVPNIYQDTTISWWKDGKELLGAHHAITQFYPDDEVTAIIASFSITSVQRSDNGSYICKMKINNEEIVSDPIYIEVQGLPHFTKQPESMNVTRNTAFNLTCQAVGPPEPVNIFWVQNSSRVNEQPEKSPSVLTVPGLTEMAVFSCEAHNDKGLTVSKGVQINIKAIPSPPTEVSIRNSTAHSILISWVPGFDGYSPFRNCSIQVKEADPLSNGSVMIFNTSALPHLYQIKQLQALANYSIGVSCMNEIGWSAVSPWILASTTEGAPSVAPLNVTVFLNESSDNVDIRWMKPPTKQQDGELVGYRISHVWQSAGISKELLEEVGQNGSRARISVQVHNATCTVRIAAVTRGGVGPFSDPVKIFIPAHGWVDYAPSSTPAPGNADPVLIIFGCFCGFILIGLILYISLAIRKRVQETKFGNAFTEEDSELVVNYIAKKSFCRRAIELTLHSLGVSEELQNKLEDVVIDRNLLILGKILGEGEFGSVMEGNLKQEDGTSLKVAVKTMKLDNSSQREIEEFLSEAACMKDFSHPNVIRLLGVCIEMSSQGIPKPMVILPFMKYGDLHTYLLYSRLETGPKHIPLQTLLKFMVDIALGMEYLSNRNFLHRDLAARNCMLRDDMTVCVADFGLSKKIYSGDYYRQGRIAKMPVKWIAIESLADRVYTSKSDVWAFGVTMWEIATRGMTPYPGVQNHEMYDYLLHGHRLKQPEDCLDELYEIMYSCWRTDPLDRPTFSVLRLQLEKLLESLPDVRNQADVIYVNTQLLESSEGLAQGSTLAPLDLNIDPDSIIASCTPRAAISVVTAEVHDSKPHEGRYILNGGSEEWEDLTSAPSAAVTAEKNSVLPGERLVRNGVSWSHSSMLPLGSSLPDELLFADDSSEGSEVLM
Description: (§1) In this system, IL-3-dependent Ba/F3 cells are modified to express an activated recombinant kinase (in the present case Axl, Mer and CSF1R). Following removal of IL-3, the modified cells are dependent on the activity of the recombinant kinase for survival and proliferation. Inhibition of such kinase(s) through test compounds reduces survival and proliferation of the cells.
(§2) Cell lines were maintained in growth media (GM) consisting of RPMI 1640 supplemented with 10% FBS. Cells in logarithmic-phase growth were harvested and 5,000 cells were distributed into each well of a 384-well plate in 50 μl GM. Parental cells (or experimental assays where specified) were further supplemented with 2 ng/ml IL-3 to support cell growth and survival. Fifty nanoliters of the indicated reference standard or experimental compound were added to appropriate wells (in duplicate) and the cells were cultured for 48 h at 37° C./5% CO2. Viability was determined by adding 10 μl Cell Titer Glo and measuring luminescence, which is reported as relative light units (RLU) measured in counts per second. The following calculations and formulas are used for data analysis using GraphPad Prism software: The curve fitting was made using the Dose response curves-Inhibition.

CSF1R (Ba/F3 cells) = CSF1R (Ba/F3 cells) (Homo sapiens, UniProt P07333); experiment: BaF3 viability assay, CSF1R-dependent cells; conditions: read-out: Cellular CSF1R activity by Ba/F3 assay (IC50)
CSF1R (Ba/F3 cells), sequence (P07333 whole entry, change not shown): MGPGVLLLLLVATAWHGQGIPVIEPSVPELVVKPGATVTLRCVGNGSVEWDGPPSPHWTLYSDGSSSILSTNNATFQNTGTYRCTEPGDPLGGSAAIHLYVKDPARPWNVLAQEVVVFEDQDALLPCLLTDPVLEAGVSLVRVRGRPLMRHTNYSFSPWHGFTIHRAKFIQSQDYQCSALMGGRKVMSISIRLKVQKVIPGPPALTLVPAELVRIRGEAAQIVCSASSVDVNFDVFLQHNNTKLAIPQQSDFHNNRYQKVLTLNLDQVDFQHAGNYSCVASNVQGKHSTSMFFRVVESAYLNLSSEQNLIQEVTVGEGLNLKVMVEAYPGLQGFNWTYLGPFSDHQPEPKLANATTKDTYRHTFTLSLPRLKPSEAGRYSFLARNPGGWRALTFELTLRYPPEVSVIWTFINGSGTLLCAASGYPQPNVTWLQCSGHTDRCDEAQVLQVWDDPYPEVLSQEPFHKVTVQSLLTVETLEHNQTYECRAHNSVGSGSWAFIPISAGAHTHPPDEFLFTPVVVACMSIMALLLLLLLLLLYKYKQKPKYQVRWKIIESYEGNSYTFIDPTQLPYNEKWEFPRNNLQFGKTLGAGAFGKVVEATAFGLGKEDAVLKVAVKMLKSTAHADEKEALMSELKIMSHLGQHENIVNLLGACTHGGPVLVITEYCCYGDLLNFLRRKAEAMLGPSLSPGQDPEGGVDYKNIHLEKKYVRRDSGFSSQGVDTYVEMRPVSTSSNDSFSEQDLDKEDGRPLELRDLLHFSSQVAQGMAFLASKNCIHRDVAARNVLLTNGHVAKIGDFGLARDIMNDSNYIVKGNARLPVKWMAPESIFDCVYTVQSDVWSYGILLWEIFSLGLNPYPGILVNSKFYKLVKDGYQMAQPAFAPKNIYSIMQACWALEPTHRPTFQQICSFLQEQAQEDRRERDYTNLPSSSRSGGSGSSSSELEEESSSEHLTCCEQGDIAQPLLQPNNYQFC
Description: as §1, §2

Axl (Ba/F3 cells) = biological target: T2, Axl (Ba/F3 cells) (Homo sapiens, UniProt P30530); experiment: BaF3 viability assay, Axl-dependent cells; conditions: read-out: Cellular Axl activity by Ba/F3 assay (IC50)
T2 sequence (P30530 1-894): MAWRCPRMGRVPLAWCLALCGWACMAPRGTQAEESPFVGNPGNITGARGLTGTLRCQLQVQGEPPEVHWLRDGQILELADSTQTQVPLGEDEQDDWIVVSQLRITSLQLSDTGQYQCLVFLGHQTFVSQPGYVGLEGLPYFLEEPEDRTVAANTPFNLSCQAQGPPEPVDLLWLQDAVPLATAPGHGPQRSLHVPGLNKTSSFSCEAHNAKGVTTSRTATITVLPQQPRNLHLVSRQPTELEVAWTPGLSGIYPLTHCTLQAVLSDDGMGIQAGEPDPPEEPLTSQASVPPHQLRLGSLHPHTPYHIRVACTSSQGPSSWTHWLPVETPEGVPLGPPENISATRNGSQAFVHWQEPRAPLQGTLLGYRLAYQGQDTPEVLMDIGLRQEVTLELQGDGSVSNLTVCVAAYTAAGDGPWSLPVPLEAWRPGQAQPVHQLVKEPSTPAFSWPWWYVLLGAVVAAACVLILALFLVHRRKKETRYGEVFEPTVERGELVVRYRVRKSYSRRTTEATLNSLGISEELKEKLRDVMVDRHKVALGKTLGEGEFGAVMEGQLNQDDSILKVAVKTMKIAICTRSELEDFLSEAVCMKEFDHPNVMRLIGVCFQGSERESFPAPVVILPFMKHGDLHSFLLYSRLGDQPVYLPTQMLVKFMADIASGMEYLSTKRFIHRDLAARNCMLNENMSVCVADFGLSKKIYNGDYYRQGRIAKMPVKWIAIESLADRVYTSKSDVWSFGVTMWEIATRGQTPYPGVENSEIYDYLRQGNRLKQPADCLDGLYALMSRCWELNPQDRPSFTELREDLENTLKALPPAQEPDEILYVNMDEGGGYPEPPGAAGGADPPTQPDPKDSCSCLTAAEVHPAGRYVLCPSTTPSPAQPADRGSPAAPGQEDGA
Description: as §1, §2

Measured: GI50

CCn1cc(OCC(F)(F)F)c(C(=O)Nc2ccc(Oc3ccnc4cc(OC)c(OC)cc34)cn2)n1 [Compound 4]
< 1 µM: Mer (Ba/F3 cells) | CSF1R (Ba/F3 cells) | Axl (Ba/F3 cells)

CCCn1cc(OCC(F)(F)F)c(C(=O)Nc2ccc(Oc3ccnc4cc(OC)c(OC)cc34)cn2)n1 [Compound 7]
< 1 µM: Mer (Ba/F3 cells) | CSF1R (Ba/F3 cells) | Axl (Ba/F3 cells)

COCCn1cc(OCC(F)(F)F)c(C(=O)Nc2ccc(Oc3ccnc4cc(OC)c(OC)cc34)cn2)n1 [Compound 10]
< 1 µM: Mer (Ba/F3 cells) | CSF1R (Ba/F3 cells) | Axl (Ba/F3 cells)

CCCn1cc(OCC(F)F)c(C(=O)Nc2ccc(Oc3ccnc4cc(OC)c(OC)cc34)cn2)n1 [Compound 12]
< 1 µM: Mer (Ba/F3 cells) | CSF1R (Ba/F3 cells) | Axl (Ba/F3 cells)

COc1cc2nccc(Oc3ccc(NC(=O)c4n[nH]cc4OCC(F)(F)F)nc3)c2cc1OC [Compound 16]
< 1 µM: Mer (Ba/F3 cells) | CSF1R (Ba/F3 cells) | Axl (Ba/F3 cells)
